Test results: US20060246178A1, “Fermented milk product comprising tripeptide vpp and/or ipp” (priority 2003, published 2006)

Key:
ACE = ACE (Homo sapiens, UniProt P12821); assay: ACE inhibition activity assay with fluorogenic substrate Abz-FRK(Dnp)P-OH; format: biochemical; conditions: standard, 5 μM end-concentration
Experimental: When ACE cleaves the R—K bond of the fluorogenic substrate, the distance of the quencher (Dnp) with regard to the fluorescent group (Abz) will be enlarged resulting in a fluorescent signal.
This signal is direct related to the ACE activity and is measured with a fluorometer.
Samples were prepared as follows:
The fermented milk was transferred to a centrifuge tube. The pH was adjusted to 4.0±0.1 by adding a few μl of 6 M HCl and centrifuged for 5-10 minutes at 4.000×g at room temperature (RT). The supernatant was transferred to a tube and the pH was adjusted to 7.0±0.1 by adding a few μl of 6 M NaOH. The pH-adjusted sample was transferred to an Eppendorf tube and centrifuged for ten minutes at 14.000 rpm at RT. The supernatant was transferred to a tube and ready for the ACE inhibition activity assay. If sample was not processed immediately, it was stored at −20° C.
The slope/second is a measure for the activity of ACE.
As a standard, Captopril (1 nM end-concentration) or IPP (5 μM end-concentration) was used.

[1] = biological target: Angiotensin I Converting Enzyme (ACE) (Homo sapiens, UniProt P12821); conditions: literature (Kohmura 1990; Nakamura 1995); read-out: IC50, the concentration which results in 50% inhibition of the ACE activity; cited from earlier work
Chain of Angiotensin I Converting Enzyme (ACE) (P12821 30-1306, species assumed): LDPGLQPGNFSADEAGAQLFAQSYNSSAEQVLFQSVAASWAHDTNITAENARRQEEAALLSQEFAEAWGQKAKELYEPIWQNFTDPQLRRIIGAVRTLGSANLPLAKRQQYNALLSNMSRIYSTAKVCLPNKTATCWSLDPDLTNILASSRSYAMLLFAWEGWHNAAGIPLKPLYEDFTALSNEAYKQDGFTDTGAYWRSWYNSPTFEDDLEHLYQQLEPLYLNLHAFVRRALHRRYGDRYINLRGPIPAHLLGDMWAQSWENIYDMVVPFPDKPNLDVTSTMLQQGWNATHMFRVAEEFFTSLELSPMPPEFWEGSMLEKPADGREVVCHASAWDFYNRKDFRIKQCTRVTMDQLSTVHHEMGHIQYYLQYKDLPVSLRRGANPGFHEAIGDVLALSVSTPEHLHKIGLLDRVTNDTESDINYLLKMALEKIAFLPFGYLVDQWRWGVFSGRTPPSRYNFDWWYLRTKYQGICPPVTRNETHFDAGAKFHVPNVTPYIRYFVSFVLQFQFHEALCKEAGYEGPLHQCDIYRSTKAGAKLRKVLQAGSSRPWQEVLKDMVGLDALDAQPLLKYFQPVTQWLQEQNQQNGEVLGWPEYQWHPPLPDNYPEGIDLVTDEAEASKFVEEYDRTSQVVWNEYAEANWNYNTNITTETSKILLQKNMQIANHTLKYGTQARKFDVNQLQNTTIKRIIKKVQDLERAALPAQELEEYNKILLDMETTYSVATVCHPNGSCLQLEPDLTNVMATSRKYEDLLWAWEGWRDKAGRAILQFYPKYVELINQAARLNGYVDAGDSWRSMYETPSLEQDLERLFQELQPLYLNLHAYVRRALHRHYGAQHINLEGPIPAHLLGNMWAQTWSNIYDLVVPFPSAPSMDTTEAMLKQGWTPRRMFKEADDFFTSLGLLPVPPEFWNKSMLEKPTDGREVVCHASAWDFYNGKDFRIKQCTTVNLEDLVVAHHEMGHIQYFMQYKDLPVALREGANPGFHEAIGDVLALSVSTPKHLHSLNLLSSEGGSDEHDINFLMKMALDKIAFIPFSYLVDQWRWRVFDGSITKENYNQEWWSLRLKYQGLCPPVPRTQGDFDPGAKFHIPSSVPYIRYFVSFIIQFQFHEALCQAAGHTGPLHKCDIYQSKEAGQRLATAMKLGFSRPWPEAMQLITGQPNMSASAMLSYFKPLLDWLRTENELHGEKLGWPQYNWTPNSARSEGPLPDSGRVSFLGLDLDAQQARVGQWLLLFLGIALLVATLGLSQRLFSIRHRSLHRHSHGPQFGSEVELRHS

Chain of ACE (P12821 30-1306, species assumed): as above

Substance	inhibition of the ACE activity (ACE)	IC50 [1]
Ile-Pro-Pro [IPP]	about 30%	5 µM
Val-Pro-Pro [VPP]	–	9 µM
